Consider ten compounds from US5869484A, “Phenylcarbamate derivatives suitable to the use as anticholinesterase substances” (priority 1994, dated 1999).

Data set [1] concerns the target T1, BuChE hserum (Homo sapiens, UniProt P06276).
T1 construct: purchased Sigma Chemical; host or cells: human serum
As to the kind of experiment: Inhibition of butyrylcholinesterase from human serum (Ellman method). The class given is biochemical. The settings on record: for activity on the BuChE: Table 1. The method, then:
(§1) The incubation time between enzyme and product used for the determinations has been 10'.
(§2) The acetylcholinesterase from human erythrocytes (AChE hRBC), the acetylcholinesterase from Electric Eel (AChE E.eel) and the butyrylcholinesterase from human serum (BuChE hserum) coming from the Sigma Chemical have been used.

For data set [2], the system named is amnesic failure induced by scopolamine. The data set is described as follows: Passive Avoidance test, scopolamine-induced amnesic failure, rats. In kind it is in vivo. The note with it: 0.5-1-2-4 mg/kg per os.
Data set [3] can be described thus: Acute toxicity (single administration) in mouse. The settings on record: in vivo.
The nature of data set [4]: Acute toxicity (single administration) in rat. The note with it: in vivo.
The target of data set [5] is T2, AChE E. eel (Electrophorus electricus, UniProt O42275).
T2 construct: purchased Sigma Chemical
The data set is described as follows: biochemical. On the set-up: species or system Electric Eel. The method, then:
as §1, §2

The target of data set [6] is T3, AChE hRBC (Homo sapiens, UniProt P22303).
T3 construct: purchased Sigma Chemical; host or cells: human erythrocytes
The data set is described as follows: biochemical. The settings on record: for AChE inhibitory activity and selectivity: AChE versus BuChE, Table 1. As for the experimental part: as §1, §2

For data set [7] the following is noted: prior art, cited from earlier work; for transaminase levels: Eur. Neuropsychopharmacol. 1(3) (1991).
The conditions of data set [8]: prior art; cited from earlier work.
The subject of data set [9] is acetylcholinesterase. The settings on record: prior art; cited from earlier work.
In data set [10] the test system is mental pathologies / Alzheimer's disease. The note with it: prior art, clinical studies; cited from earlier work.
[11] abbreviates: iv, read-out: Toxicity tests (LD50), mouse iv.
Setting [12] is: po, os, read-out: Toxicity tests (LD50), mouse os.
[13] abbreviates: po, os, read-out: Toxicity tests (LD50), rat os.
The mark [14] stands for this setting: iv, read-out: Toxicity tests (LD50), rat iv.

Each structure is given as a SMILES string. Like-named read-outs stand apart in the source and are kept apart here. A value given as a limit tells only on which side of the number the result lay.

T3 sequence (P22303 32-617 isoform P22303-2 limits assumed): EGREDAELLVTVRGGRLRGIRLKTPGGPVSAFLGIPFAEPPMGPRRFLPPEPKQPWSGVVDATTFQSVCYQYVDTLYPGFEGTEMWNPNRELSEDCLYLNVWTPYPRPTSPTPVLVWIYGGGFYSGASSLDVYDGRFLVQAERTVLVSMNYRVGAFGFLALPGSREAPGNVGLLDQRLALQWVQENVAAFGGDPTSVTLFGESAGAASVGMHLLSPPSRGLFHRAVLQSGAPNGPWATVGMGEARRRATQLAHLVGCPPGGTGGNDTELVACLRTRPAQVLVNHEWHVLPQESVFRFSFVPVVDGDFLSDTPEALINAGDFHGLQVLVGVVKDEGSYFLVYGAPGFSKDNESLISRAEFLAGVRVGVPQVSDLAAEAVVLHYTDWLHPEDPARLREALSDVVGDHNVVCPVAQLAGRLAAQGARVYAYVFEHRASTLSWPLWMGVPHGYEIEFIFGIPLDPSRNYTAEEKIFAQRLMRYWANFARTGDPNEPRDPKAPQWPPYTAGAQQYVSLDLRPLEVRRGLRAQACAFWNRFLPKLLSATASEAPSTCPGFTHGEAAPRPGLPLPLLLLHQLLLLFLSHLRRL
T1 sequence (P06276 29-602): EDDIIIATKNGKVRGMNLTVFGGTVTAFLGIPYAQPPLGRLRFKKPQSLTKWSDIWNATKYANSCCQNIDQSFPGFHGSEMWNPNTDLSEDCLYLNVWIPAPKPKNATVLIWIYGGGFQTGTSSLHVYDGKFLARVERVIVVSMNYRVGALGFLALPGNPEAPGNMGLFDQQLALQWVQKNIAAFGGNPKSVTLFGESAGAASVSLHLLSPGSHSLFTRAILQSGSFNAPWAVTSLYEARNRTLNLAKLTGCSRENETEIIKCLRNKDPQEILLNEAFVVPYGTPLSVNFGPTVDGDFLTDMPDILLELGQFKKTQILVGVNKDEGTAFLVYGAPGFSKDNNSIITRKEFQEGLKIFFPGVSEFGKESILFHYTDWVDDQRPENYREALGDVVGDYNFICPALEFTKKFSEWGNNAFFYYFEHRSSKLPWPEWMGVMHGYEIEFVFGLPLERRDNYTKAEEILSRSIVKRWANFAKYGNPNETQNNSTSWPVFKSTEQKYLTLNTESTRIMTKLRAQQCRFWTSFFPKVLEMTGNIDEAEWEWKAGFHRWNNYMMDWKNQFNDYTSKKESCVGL
T2 sequence (O42275 24-633): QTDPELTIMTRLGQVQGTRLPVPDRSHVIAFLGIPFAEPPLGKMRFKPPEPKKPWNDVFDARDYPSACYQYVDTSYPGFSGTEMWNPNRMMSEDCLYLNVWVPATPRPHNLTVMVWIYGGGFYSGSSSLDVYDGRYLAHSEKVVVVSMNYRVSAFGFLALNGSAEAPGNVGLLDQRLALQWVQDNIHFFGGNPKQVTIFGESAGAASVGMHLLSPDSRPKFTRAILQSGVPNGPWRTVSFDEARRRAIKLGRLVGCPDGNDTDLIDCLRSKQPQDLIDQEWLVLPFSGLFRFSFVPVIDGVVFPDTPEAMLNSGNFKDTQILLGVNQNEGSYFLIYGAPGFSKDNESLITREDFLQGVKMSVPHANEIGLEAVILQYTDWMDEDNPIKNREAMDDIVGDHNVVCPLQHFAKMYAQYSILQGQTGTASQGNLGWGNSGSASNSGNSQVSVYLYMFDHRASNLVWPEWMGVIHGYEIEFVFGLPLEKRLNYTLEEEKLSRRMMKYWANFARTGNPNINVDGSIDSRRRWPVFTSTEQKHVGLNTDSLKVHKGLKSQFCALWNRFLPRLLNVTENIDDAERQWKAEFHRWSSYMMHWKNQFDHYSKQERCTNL

A word on the IC50: it is the concentration that inhibits the measured activity by half. The LD50 is the dose expected to kill half of the subjects tested. Consider `CN(C)CC(C)(C)c1cccc(OC(=O)NCCCCCCCCN2CCOCC2)c1` [Ex. 1, 3-[(1-dimethylamino-2-methyl)prop-2-yl]-N-[8-(4-morpholinyl)octyl]phenylcarbamate], for which the figures for the half-maximal inhibitory concentration (IC50) in [1], in data set [5] and in data set [6] were 0.016 µM, 0.47 µM and 0.16 µM, respectively. Also, in data set [2], the “reduction of amnesic failure induced by scopolamine in the Passive Avoidance test” value was “able to reduce the amnesic failure induced by scopolamine”. In addition, the LD50 came out at 15 mg/kg in data set [3] (setting [11]), 67 mg/kg in data set [3] (setting [12]) and 33 mg/kg in data set [4] (setting [13]). Also, the “potency compared with eptastigmine, physostigmine or tacrine” value (from here on “potency compared with eptastigmine”) in data set [6] (comparison from Table 1) was “equal or even superior to that of eptastigmine or of physostigmine”.
As to `C[C@@H]1CN(CCCCCCCCNC(=O)Oc2cccc(C(C)(C)CN(C)C)c2)C[C@H](C)O1` [Ex. 2, 3-[(1-dimethylamino-2-methyl)-prop-2-yl]-N-8-[[4-(cis2,6-dimethyl)morpholinyl]octyl]-phenylcarbamate], the figures for the IC50 in data set [1], in [5] and in [6] were 0.02 µM, 1.1 µM and 0.42 µM, respectively. For the same compound, the LD50 in [3] (setting [12]) was more than 50 mg/kg.
Regarding `CCCCCCCNC(=O)Oc1ccc2c(c1)[C@]1(C)CCN(C)[C@@H]1N2C` [Eptastigmine, heptylcarbamic ester of the eseroline, reference compound], the IC50 in data set [1] was 0.14 µM; in [5] (incubation time 10', read-out: Inhibition of the cholinesterase (IC50 M), AChE E. eel) it was 0.05 µM. For the same compound, the side-effects entry in [7] is recorded as “reduced side-effects”. The pharmacokinetic characteristics result in [8] is “better pharmacokinetic characteristics”. In addition, the LD50 was determined as 7 mg/kg in data set [3] (setting [11]), 25 mg/kg in data set [3] (setting [12]), 5 mg/kg in data set [4] (setting [14]) and 23 mg/kg in [4] (setting [13]). For the same compound, the inhibition of acetylcholinesterase entry in data set [9] is listed as “less powerful”.
On to `Nc1c2c(nc3ccccc13)CCCC2O` (stereo not shown) [Velnacrine], for which, in data set [7], the transaminase levels entry is “induce high transaminase levels”.
As to `CN(C)CC(C)(C)c1cccc(OC(=O)N(C)c2cccc(F)c2)c1` [Ex. 38, 3-[(1-dimethylamino-2-methyl)prop-2-yl]-N-(3-fluoro)phenyl-N-methyl phenylcarbamate], in [1], the IC50 is more than 100 µM and the “activity on the BuChE” value was “poor activity on the BuChE”. In addition, in data set [4] (setting [13]), the LD50 was more than 40 mg/kg. In data set [6], half-maximal inhibition (IC50) was put at 0.05 µM; the “AChE inhibitory activity and selectivity” value is “potent and selective AChE inhibitory activity”. The “potency compared with eptastigmine” value in [6] (comparison from Table 1) is listed as “equal or even superior to that of eptastigmine or of physostigmine”.
Take `COc1ccc(N(C)C(=O)Oc2cccc(C(C)(C)CN(C)C)c2)cc1` [Ex. 35, 3-[(1-dimethylamino-2-methyl)prop-2-yl]-N-methyl-N-(4-methoxy)phenyl phenylcarbamate]: in data set [1], the IC50 is more than 100 µM and the “activity on the BuChE” value is “poor activity on the BuChE”. The LD50 in [4] (setting [14]) is 3 mg/kg. The LD50 in data set [4] (setting [13]) is 40 mg/kg. Moreover, in [6], the IC50 came out at 0.013 µM; the “AChE inhibitory activity and selectivity” value is “potent and selective AChE inhibitory activity”. Besides, the “potency compared with eptastigmine” value in data set [6] (comparison from Table 1) was “equal or even superior to that of eptastigmine or of physostigmine”.
Turning to `CNC(=O)Oc1ccc2c(c1)[C@]1(C)CCN(C)[C@@H]1N2C` [Physostigmine, reference compound], the pharmacokinetic characteristics result in data set [8] is given as “unfavourable pharmacokinetic characteristics”. Also, the figures for the LD50 in data set [3] (setting [11]) and in data set [3] (setting [12]) were 0.6 mg/kg and 3.4 mg/kg, respectively. Also, in data set [10], the efficacy in patients result is recorded as “beneficial results in the treatment of the patients affected by mental pathologies”. The inhibition of acetylcholinesterase result in data set [9] is listed as “powerful natural inhibitor of the acetylcholinesterase”. The “potency compared with eptastigmine” value in data set [6] is given as “superior to that of tacrine”.
For the compound `CN(C)CC(C)(C)c1cccc(OC(=O)N(C)c2ccccc2)c1` [Ex. 25, 3-[(1-dimethylamino-2-methyl)prop-2-yl]-N-phenyl-N-methyl-phenylcarbamate], the IC50 is more than 1000 µM in [1] and 1.7 µM in data set [6]. Also, the “activity on the BuChE” value in [1] is “poor activity on the BuChE”. Besides, the LD50 in data set [3] (setting [11]) was found to be 15 mg/kg; in data set [4] (setting [14]), 14 mg/kg; in [4] (setting [13]), 56 mg/kg. In data set [6], the “AChE inhibitory activity and selectivity” value is “potent and selective AChE inhibitory activity”.
For `Nc1c2c(nc3ccccc13)CCCC2` [Tacrine, 9-amino-1,2,3,4-tetrahydroacridine], the transaminase levels result in [7] was “induce high transaminase levels”.
As to `CN(C)CC(C)(C)c1cccc(OC(=O)N(C)C2CCCCC2)c1` [Ex. 40, 3-[(1-dimethylamino-2-methyl)prop-2-yl]-N-cyclohexyl-N-methyl phenylcarbamate], in data set [1], the IC50 is more than 100 µM and the “activity on the BuChE” value was “poor activity on the BuChE”. In data set [4] (setting [13]), the LD50 was more than 40 mg/kg. For the same compound, in [6], the IC50 is 0.18 µM; the “AChE inhibitory activity and selectivity” value is “potent and selective AChE inhibitory activity”. The “potency compared with eptastigmine” value in data set [6] (comparison from Table 1) was “equal or even superior to that of eptastigmine or of physostigmine”.
